From patent US6596713B1, “Steroid esters and amides, process for their production and their pharmaceutical use” (priority 1994, dated 2003)

Format: physicochemical
Details: temperature in which 50 mg of substance is dissolved in 1 ml of a 1:4 benzyl benzoate/castor oil mixture; lower temperature = better solubility

Row | Solubility | Substance
1 | 23 °C | (Z)-6′-(4-Cyanophenyl)-9,11α-dihydro-17β-hydroxy-17α-[3-[(1-oxononyl)oxy]-1-propenyl]-4′H-naphtho[3′,2′,1′:10,9,11]estr-4-en-3-one [Example 4]
2 | 50 °C | (Z)-6′-(4-Cyanophenyl)-9,11α-dihydro-17β-hydroxy-17α-[3-[(1-oxopentyl)oxy]-1-propenyl]-4′H-naphtho[3′,2′,1′:10,9,11]estr-4-en-3-one [Example 2]
3 | 23 °C | (Z)-6′-(4-Cyanophenyl)-17α-[3-(3-cyclopentyl-1-oxopropoxy)-1-propenyl]-9,11α-dihydro-17β-hydroxy-4′H-naphtho[3′,2′,1′:10,9,11]estr-4-en-3-one [Example 8]
4 | 100 °C | (Z)-6′-(4-Fluorophenyl)-17α-(3-hydroxyprop-1-enyl)-9, 11α-dihydro-17β-hydroxy-4′-naphtho]3′,2′,1′:10,9,11]estr-4-en-3-one [Ref. 4, reference compound]
5 | 50 °C | (Z)-9,11α-Dihydro-17β-hydroxy-17α-[3-(1-oxopropoxy)-1-propenyl]-6′-(3-pyridinyl)-4′H-naphtho[3′,2′,1′:10,9,11]estr-4-en-3-one [Example 18]
6 | 50 °C | (Z)-9,11α-Dihydro-17β-hydroxy-17α-[3-[(1-oxopentyl)oxy]-1-propenyl]-6′-(3-pyridinyl)-4′H-naphtho[3′,2′,1′:10,9,11]estr-4-en-3-one [Example 19]
7 | 23 °C | [S-(Z)]-6′-(4-Fluorophenyl)-9,11α-dihydro-17α-[3-[2-[[(1,1-dimethylethoxy)carbonyl]amino]-1-oxopropoxy]-1-propenyl]-17β-hydroxy-4′H-naphtho[3′,2′,1′:10,9,11]estr-4-en-3-one [Example 41]
8 | 50 °C | [S-(Z)]-9,11α-Dihydro-17α-[3-[2-[[(1,1-dimethylethoxy)carbonyl]amino]-1-oxopropoxy]-1-propenyl]-17β-hydroxy-6′-(3-pyridinyl)-4′H-naphtho[3′,2′,1′:10,9,11]estr-4-en-3-one [Example 24]
9 | 23 °C | [S-(Z)]-9,11α-Dihydro-17α-[3-[[[(1,1-dimethylethoxy)carbonyl]amino]acetyloxy]-1-propenyl]-17β-hydroxy-6′-(3-pyridinyl)-4′H-naphtho[3′,2′,1′:10,9,11]estr-4-en-3-one [Example 35]
10 | 50 °C | [S-(Z)]-17α-[3-(2-Amino-1-oxopropoxy)-1-propenyl]-6′-(4-fluorophenyl)-9,11α-dihydro-17β-hydroxy-4′H-naphtho[3′,2′,1′:10,9,11]estr-4-en-3-one [Example 40]

Row | Substance | Solubility
11 | (Z)-9,11α-Dihydro-17α-[3-(1,4-dioxo-4-ethoxybutoxy)-1-propenyl]-17β-hydroxy-6′-(3-pyridinyl)-4′H-naphtho[3′,2′,1′:10,9,11]estr-4-en-3-one [Example 22] | 50 °C
12 | (Z)-9,11α-Dihydro-17α-[3-(3,3-dimethyl-1-oxobutoxy)-1-propenyl]-6′-(3-pyridinyl)-17βhydroxy-4′H-naphtho[3′,2′,1′:10,9,11]estr-4-en-3-one [Example 21] | 50 °C
13 | [S-(Z)]-6′-(4-Cyanophenyl)-9,11α-dihydro-17α-[3-[2-[[(1,1-dimethylethoxy)carbonyl]amino]-3-methyl-1-oxobutoxy]-17β-hydroxy-4′H-naphtho[3′,2′,1′:10,9,11]estr-4-en-3-one [Example 17] | 50 °C
14 | [S-(Z)]-9,11α-Dihydro-17α-[3-[2-[[(1,1-dimethylethoxy)carbonyl]amino]-3-methyl-1-oxobutoxy]-1-propenyl]-17βhydroxy-6′-(3-pyridinyl)-4′H-naphtho[3′,2′,1′:10,9,11]estr-4-en-3-one [Example 25] | 50 °C
15 | [S-(Z)]-17α-[3-(2-Amino-3-methyl-1-oxobutoxy)-1-propenyl]-6′-(4-cyanophenyl)-9,11α-dihydro-17β-hydroxy-4′H-naphtho[3′,2′,1′:10,9,11]estr-4-en-3-one [Example 16] | 100 °C
